Reference: patent US20170275270A1, “BENZYL SUBSTITUTED INDAZOLES” (Bayer Pharma Aktiengesellschaft, priority 2014, published 2017)
Counter-ions that a name gives are not always drawn. Like-named read-outs stand apart in the source and are kept apart here.

Experiments:
[1] = target: Bub1 (Homo sapiens, UniProt O43683); assay: Formation-Assay: phosphorylation status of histone 2A by inhibition of kinase activity of Bub1; type: cell-based; settings: Biological Assay 4.1: H2A Formation IC50, co-treatment with Nocodazole 1 μg/ml, 16 h
Sequence of Bub1 (O43683 whole entry): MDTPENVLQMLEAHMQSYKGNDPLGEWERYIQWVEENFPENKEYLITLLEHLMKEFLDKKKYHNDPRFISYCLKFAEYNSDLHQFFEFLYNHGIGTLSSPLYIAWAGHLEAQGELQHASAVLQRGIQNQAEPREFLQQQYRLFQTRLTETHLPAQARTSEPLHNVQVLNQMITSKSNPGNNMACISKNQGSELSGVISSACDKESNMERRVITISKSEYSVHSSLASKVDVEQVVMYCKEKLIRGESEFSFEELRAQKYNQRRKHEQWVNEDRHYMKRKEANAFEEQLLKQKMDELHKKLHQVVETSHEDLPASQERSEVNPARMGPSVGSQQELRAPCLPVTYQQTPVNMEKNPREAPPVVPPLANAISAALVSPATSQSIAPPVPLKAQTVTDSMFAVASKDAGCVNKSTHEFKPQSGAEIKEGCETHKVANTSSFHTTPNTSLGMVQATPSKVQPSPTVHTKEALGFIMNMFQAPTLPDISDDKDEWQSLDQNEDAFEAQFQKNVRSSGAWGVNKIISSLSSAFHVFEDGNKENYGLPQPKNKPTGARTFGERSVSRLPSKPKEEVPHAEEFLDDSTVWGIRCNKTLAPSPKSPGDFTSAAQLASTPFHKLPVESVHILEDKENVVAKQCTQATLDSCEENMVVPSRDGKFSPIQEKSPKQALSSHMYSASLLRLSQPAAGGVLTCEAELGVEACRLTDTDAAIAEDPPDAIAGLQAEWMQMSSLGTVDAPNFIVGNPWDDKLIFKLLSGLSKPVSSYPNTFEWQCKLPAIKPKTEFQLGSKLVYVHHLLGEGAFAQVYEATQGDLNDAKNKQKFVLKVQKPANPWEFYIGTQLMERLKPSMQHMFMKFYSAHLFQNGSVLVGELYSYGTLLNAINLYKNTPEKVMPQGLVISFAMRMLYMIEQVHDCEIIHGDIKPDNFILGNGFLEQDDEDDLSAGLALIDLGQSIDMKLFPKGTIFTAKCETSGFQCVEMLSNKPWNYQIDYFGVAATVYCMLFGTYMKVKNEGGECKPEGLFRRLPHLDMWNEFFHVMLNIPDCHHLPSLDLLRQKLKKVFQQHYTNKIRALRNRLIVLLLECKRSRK
Outline: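 Cells co-treated 16 h with Nocodazole (1 μg/ml) and compound (3 nM–10 μM), then fixed and immunostained for phospho-H2A, read by infrared imaging (800 nm) normalised to cell stain (700 nm). Nocodazole-only set as 100%, untreated cells as 0%.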

[2] = system: HeLa; assay: Proliferation assay (HeLa cell line); settings: Homo sapiens, 96 h, read-out: Biological Assay 2: Proliferation assay (HeLa cell line) median IC50;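 also: crystal violet staining of cell number, scaled between a plate stained before dosing (0%) and cells left untreated (100%), compounds tested at 0.001-10 µM, IC50 via 4-parameter fit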
[3] = target: T1, catalytic domain of human Bub1 (amino acids 704-1085) (Homo sapiens, UniProt O43683); assay: Bub1 kinase assay (TR-FRET); type: biochemical
T1 construct: catalytic domain of human Bub1 (amino acids 704-1085); His6 (N); made in house; host or cells: Hi5 insect cells
T1 sequence (O43683 704-1085): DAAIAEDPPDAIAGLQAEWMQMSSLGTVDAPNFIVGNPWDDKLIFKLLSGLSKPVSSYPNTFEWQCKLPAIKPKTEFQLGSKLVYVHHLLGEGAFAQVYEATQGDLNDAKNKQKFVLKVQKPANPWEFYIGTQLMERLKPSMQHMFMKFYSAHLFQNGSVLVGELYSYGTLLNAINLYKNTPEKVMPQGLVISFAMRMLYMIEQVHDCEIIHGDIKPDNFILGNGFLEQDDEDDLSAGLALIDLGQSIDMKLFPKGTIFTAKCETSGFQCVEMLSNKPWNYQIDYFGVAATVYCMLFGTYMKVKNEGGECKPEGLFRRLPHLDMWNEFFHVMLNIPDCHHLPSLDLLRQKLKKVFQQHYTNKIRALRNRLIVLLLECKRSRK
Outline: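 Compounds from 2 mM DMSO stocks, serially diluted 1:3.4, incubated with enzyme at 22° C for 60 min. Stopped with EDTA, then 1 h with streptavidin-XL665, anti-phosphoserine antibody and Eu-labelled anti-mouse IgG. Phosphorylated biotin-peptide read by TR-FRET; IC50 by 4-parameter logistic fit.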

[4] = system: HeLa human cervical tumor cells; assay: Proliferation assay (HeLa+Paclitaxel); settings: read-out: Biological Assay 3: HeLa + Paclitaxel IC50, 3 nM paclitaxel, crystal violet;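 also: compounds at 0.001-10 µM added 4 h after paclitaxel, 92 h exposure, absorbance normalized to zero-point plate (0%) and untreated cells (100%), IC50 from 4-parameter fit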
[5] = 10 μM ATP, read-out: Biological Assay 1: Bub1 kinase assay median IC50
[6] = Biological Assay 1: Bub1 kinase assay median IC50, 10 μM ATP

IC50 [1] [nM]	IC50 [2] [nM]	IC50 [3, 5] [nM]	IC50 [4] [nM]	IC50 [3, 6] [nM]	Structure (SMILES)
3.8	2700	35	78	–	CCOc1cc(F)c(Cn2nc(-c3nc4c(c(Nc5cc(C)ncc5C)n3)CC(C)(C)CC4)c3ccccc32)c(F)c1 [Example 2-12-68, N-(2,5-dimethylpyridin-4-yl)-2-[1-(4-ethoxy-2,6-difluorobenzyl)-1H-indazol-3-yl]-6,6-dimethyl-5,6,7,8-tetrahydroquinazolin-4-amine]
63	4000	11	250	–	CCOc1cc(F)c(Cn2nc(-c3nc(CN4CCOCC4)cc(Nc4ccncc4F)n3)c3ccccc32)c(F)c1 [Example 2-19-12, 2-[1-(4-ethoxy-2,6-difluorobenzyl)-1H-indazol-3-yl]-N-(3-fluoropyridin-4-yl)-6-(morpholin-4-ylmethyl)pyrimidin-4-amine]
2500	> 10000	8.1	440	–	CCOc1cc(F)c(Cn2nc(-c3nc4c(c(Nc5ccnc(C(F)F)c5)n3)CCC4)c3ccccc32)c(F)c1 [Example 2-19-8, N-[2-(difluoromethyl)pyridin-4-yl]-2-[1-(4-ethoxy-2,6-difluorobenzyl)-1H-indazol-3-yl]-6,7-dihydro-5H-cyclopenta[d]pyrimidin-4-amine]
14	10000	17	590	–	CCOc1cc(F)c(Cn2nc(-c3nc(CN4CCOCC4)cc(Nc4ccnnc4)n3)c3ccccc32)c(F)c1 [Example 2-12-35, N-{2-[1-(4-ethoxy-2,6-difluorobenzyl)-1H-indazol-3-yl]-6-(morpholin-4-ylmethyl)pyrimidin-4-yl}pyridazin-4-amine]
23	970	–	1300	5.4	COCc1cc(Nc2ccncc2C)nc(-c2nn(Cc3c(F)cc(OCCO)cc3F)c3ccccc23)n1 [Example 2-12-50, 2-{3,5-difluoro-4-[(3-{4-(methoxymethyl)-6-[(3-methylpyridin-4-yl)amino]pyrimidin-2-yl}-1H-indazol-1-yl)methyl]phenoxy}eth-anol]
19	2200	–	180	31	OCCOc1cc(F)c(Cn2nc(-c3ncc(C4CCN(CCC(F)(F)F)CC4)c(Nc4ccncc4Cl)n3)c3ccccc32)c(F)c1 [Example 2-6-15, 2-{4-[(3-{4-[(3-chloropyridin-4-yl)amino]-5-[1-(3,3,3-trifluoropropyl)piperidin-4-yl]pyrimidin-2-yl}-1H-indazol-1-yl)methyl]-3,5-difluorophenoxy} ethanol]
21	> 10000	57	540	–	CCOc1cc(F)c(Cn2nc(-c3nc4c(c(Nc5ccnc(OC)c5)n3)CCC4)c3ccccc32)c(F)c1 [Example 2-19-7, 2-[1-(4-ethoxy-2,6-difluorobenzyl)-1H-indazol-3-yl]-N-(2-methoxypyridin-4-yl)-6,7-dihydro-5H-cyclopenta[d]pyrimidin-4-amine]
7100	1500	18	140	–	CCOc1cc(F)c(Cn2nc(-c3nc4c(c(Nc5ccncc5OC)n3)COC4)c3ccccc32)c(F)c1 [Example 2-19-17, 2-[1-(4-ethoxy-2,6-difluorobenzyl)-1H-indazol-3-yl]-N-(3-methoxypyridin-4-yl)-5,7-dihydrofuro[3,4-d]pyrimidin-4-amine]
0.56	> 10000	–	60	550	Cc1nccc(Nc2nc(-c3nn(Cc4c(F)cc(OCCO)cc4F)c4ccccc34)ncc2C2CCN(CC(F)(F)F)CC2)n1 [Example 2-6-16, 2-{3,5-difluoro-4-[(3-{4-[(2-methylpyrimidin-4-yl)amino]-5-[1-(2,2,2-trifluoroethyl)piperidin-4-yl]pyrimidin-2-yl}-1H-indazol-1-yl)methyl]phenoxy}ethanol]
11	4300	–	170	11	CCOc1cc(F)c(Cn2nc(-c3nc4c(c(Nc5ccncc5)n3)CNC4)c3ccccc32)c(F)c1 [Example 2-9-14, 2-[1-(4-ethoxy-2,6-difluorobenzyl)-1H-indazol-3-yl]-N-(pyridin-4-yl)-6,7-dihydro-5H-pyrrolo[3,4-d]pyrimidin-4-amine, salt with hydrochloric acid]
4.1	2000	8.4	250	–	CCOc1cc(F)c(Cn2nc(-c3nc4c(c(Nc5ccnc(NC(C)=O)c5)n3)CCC4)c3ccccc32)c(F)c1 [Example 2-12-18, N-[4-({2-[1-(4-ethoxy-2,6-difluorobenzyl)-1H-indazol-3-yl]-6,7-dihydro-5H-cyclopenta[d]pyrimidin-4-yl}amino)pyridin-2-yl]acetamide]
8.2	3700	–	370	5.3	CCOc1cc(F)c(Cn2nc(-c3ncc(CCCO)c(Nc4ccncc4)n3)c3ccccc32)c(F)c1 [Example 2-13-1, 3-{2-[1-(4-ethoxy-2,6-difluorobenzyl)-1H-indazol-3-yl]-4-(pyridin-4-ylamino)pyrimidin-5-yl}propan-1-ol]
3900	7800	–	140	130	CCOc1cc(F)c(Cn2nc(-c3ncc(CCCN4CCOCC4)c(Nc4ccncc4C(F)(F)F)n3)c3ccccc32)c(F)c1 [Example 2-2-14, 2-[1-(4-ethoxy-2,6-difluorobenzyl)-1H-indazol-3-yl]-5-[3-(morpholin-4-yl)propyl]-N-[3-(trifluoromethyl)pyridin-4-yl]pyrimidin-4-amine]
13	940	2.9	120	–	CCOc1cc(F)c(Cn2nc(-c3nc4c(c(Nc5ccncc5OC)n3)CCC4)c3ccccc32)c(F)c1 [Example 2-14-4, 2-[1-(4-ethoxy-2,6-difluorobenzyl)-1H-indazol-3-yl]-N-(3-methoxypyridin-4-yl)-6,7-dihydro-5H-cyclopenta[d]pyrimidin-4-amine]
110	> 10000	–	130	17	CCOc1cc(F)c(Cn2nc(-c3ncc(C4CCN(CC(F)(F)F)CC4)c(Nc4ccnc(NC(C)=O)c4)n3)c3ccccc32)c(F)c1 [Example 2-20-1, N-[4-({2-[1-(4-ethoxy-2,6-difluorobenzyl)-1H-indazol-3-yl]-5-[1-(2,2,2-trifluoroethyl)piperidin-4-yl]pyrimidin-4-yl}amino)pyridin-2-yl]acetamide]
9.1	> 10000	–	260	51	CCOc1cc(F)c(Cn2nc(-c3ncc(C4CCN(CC(F)(F)F)CC4)c(Nc4ccnc(C)n4)n3)c3ccccc32)c(F)c1 [Example 2-20-2, 2-[1-(4-ethoxy-2,6-difluorobenzyl)-1H-indazol-3-yl]-N-(2-methylpyrimidin-4-yl)-5-[1-(2,2,2-trifluoroethyl)piperidin-4-yl]pyrimidin-4-amine]
2.8	4000	–	340	3300	CCOc1cc(F)c(Cn2nc(-c3nc4c(c(Nc5ccnc(C(F)(F)F)c5)n3)CNC4)c3ccccc32)c(F)c1 [Example 2-9-15, 2-[1-(4-ethoxy-2,6-difluorobenzyl)-1H-indazol-3-yl]-N-[2-(trifluoro-methyl)pyridin-4-yl]-6,7-dihydro-5H-pyrrolo[3,4-d]pyrimidin-4-amine, salt with hydrochloric acid]
